Measured values published in US20050020594A1, “Substituted pyridazinones” (Pharmacia Corporation, priority 2003, published 2005).

Biological target: T1, human p38 kinase alpha (Homo sapiens, UniProt Q16539)
T1 construct: made in house; host or cells: E. coli DH10B
Test: p38 alpha kinase assay
Format: biochemical
Details: in vitro inhibition of activated human p38 kinase alpha; two formats described (PHAS-I/32P-ATP, EGFRP/33P-ATP), format used not stated; values given as ranges
Procedure: The ability of compounds to inhibit human p38 kinase alpha was evaluated using two in vitro assay methods. In the first method, activated human p38 kinase alpha phosphorylates a biotinylated substrate, PHAS-I (phosphorylated heat and acid stable protein-insulin inducible), in the presence of gamma ^32P-ATP (^32P-ATP). PHAS-I was biotinylated prior to the assay and provides a means of capturing the substrate, which is phosphorylated during the assay. p38 Kinase was activated by MKK6. Compounds were tested in 10 fold serial dilutions over the range of 100 μM to 0.001 μM using 1% DMSO. Each concentration of inhibitor was tested in triplicate. All reactions were carried out in 96 well polypropylene plates. Each reaction well contained 25 mM HEPES pH 7.5, 10 mM magnesium acetate and 50µM unlabeled ATP. Activation of p38 was required to achieve sufficient signal in the assay. Biotinylated PHAS-I was used at 1-2 μg per 50 μl reaction volume, with a final concentration of 1.5 μM. Activated human p38 kinase alpha was used at 1 μg per 50 μl reaction volume representing a final concentration of 0.3 μM. […] The plates were sealed and counted. […] 150 μl of Microscint 40 was then added to each well of the Microlite plate, and the plate was sealed, mixed, and counted.

T1 sequence (Q16539 whole entry): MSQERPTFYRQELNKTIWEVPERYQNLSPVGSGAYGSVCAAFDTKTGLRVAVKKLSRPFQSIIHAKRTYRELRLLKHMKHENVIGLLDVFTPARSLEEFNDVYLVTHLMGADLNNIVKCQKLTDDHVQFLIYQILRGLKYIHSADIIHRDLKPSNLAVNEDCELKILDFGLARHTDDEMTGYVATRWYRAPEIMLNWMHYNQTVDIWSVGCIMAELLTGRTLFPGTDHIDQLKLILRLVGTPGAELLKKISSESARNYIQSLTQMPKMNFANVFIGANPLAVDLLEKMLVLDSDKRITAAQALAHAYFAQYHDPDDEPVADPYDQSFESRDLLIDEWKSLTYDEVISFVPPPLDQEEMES

SMILES	IC50 [µM]
Cc1c(OCCc2ccccc2)cnn(-c2c(Cl)cccc2Cl)c1=O [Compound 49, 2-(2,6-dichlorophenyl)-4-methyl-5-(2-phenylethoxy)pyridazin-3(2H)-one]	0.1 to 20
O=c1cc(OCCc2ccccc2)cnn1-c1c(Cl)cccc1Cl [Compound 48, 2-(2,6-dichlorophenyl)-5-(2-phenylethoxy)pyridazin-3(2H)-one]	40 to 60
